Measurements reported in patent publication EP1247803A2, “Indolinone compounds suitable for modulation of protein kinases” (Sugen, Inc., priority 1996, dated 1998).

Tests used:
PDGF-R = PDGF-R (Homo sapiens, UniProt P09619); assay: PDGF-R ELISA; assay type: cell-based
From the text: A PDGF-R ELISA is described in International Patent Publication No. WO 96/40116, published December 19, 1996 by Tang et al.

EGFR = biological target: T1, EGFR (Homo sapiens, UniProt P00533); assay: EGFR ELISA assay (in vitro kinase activity, EGFR captured from A431 cell lysate); assay type: biochemical; set-up: concentration or dose not given beside the values
T1 construct: Add 7 ug A431 cell lysate per well (EGFR source); endogenous in cells; host or cells: A431
How it was run: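 EGFR from A431 lysate was captured on plates coated with anti-EGFR antibody. Compounds were added 30 min before a 5 min phosphorylation with 3 µM ATP/5 mM MnCl2, which was stopped with 20 mM EDTA. Phosphotyrosine was detected with rabbit anti-phosphotyrosine, then a peroxidase-conjugated secondary and ABTS/H2O2, read at 410 nm.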

PDGF-R, sequence (P09619 33-1106, species assumed): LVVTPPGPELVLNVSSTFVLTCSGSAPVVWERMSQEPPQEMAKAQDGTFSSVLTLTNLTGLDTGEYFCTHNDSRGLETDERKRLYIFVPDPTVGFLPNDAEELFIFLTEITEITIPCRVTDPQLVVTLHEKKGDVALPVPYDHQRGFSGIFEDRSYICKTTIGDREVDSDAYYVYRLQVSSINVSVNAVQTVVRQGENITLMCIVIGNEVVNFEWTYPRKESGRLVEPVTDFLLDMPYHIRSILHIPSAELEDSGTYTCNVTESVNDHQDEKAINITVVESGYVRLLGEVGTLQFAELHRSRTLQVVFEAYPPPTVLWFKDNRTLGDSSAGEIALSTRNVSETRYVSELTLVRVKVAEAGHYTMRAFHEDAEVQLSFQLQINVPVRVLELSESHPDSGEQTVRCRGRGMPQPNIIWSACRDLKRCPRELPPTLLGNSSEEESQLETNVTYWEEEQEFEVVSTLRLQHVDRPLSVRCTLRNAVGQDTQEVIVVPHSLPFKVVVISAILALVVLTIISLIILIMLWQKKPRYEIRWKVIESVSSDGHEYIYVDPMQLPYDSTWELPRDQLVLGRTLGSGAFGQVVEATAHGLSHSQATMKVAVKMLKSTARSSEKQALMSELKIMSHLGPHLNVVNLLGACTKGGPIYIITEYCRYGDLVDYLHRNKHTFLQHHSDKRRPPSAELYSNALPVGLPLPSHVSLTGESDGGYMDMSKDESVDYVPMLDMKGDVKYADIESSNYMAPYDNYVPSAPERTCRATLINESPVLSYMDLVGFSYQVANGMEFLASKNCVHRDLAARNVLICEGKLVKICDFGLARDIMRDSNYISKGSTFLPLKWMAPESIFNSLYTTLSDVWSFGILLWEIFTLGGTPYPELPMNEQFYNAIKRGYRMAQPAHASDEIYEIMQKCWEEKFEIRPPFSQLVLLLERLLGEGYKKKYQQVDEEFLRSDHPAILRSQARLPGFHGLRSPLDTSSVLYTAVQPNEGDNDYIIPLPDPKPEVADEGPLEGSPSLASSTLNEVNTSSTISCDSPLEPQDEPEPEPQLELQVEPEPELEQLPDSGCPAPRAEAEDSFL
T1 sequence (P00533 25-1210): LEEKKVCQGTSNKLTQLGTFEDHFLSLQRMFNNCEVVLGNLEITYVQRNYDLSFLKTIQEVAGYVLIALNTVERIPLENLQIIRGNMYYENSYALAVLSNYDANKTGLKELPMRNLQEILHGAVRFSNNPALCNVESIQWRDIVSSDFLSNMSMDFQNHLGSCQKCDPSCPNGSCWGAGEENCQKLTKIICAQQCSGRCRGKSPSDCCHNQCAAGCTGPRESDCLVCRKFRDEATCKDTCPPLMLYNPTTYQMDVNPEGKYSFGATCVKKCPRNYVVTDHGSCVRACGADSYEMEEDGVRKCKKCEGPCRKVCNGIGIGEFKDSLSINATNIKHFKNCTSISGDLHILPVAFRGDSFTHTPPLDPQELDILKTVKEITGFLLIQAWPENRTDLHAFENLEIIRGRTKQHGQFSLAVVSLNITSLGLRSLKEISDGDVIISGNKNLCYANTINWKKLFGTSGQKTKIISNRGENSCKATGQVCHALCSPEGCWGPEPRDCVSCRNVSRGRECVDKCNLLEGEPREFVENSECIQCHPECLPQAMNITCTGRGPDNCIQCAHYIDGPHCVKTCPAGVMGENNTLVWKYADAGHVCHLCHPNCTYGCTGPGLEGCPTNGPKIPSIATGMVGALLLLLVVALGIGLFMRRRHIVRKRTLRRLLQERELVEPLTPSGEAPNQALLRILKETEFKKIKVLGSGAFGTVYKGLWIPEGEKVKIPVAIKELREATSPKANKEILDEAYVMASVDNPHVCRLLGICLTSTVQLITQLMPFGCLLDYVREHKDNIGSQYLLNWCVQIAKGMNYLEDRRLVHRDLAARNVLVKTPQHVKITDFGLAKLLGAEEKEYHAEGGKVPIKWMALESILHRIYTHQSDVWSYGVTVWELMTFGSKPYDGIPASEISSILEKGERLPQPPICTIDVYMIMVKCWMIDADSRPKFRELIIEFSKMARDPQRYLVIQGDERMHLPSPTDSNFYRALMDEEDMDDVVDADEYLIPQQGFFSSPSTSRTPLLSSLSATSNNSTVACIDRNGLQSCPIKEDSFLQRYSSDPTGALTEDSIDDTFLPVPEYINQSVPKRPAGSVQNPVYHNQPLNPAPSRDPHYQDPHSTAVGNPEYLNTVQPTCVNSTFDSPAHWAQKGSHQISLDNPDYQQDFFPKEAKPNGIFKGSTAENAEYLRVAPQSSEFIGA

O=C1Nc2ccc(CCCl)cc2C1=Cc1cc(Cl)ccc1O [10734/G04]
PDGF Kinase %Inhibition (PDGF-R): 16.1%
Biochem EGFR %Inhibition (EGFR): 62.9%

CCN(CC)c1ccc(C=C2C(=O)Nc3ccc(CCCl)cc32)c(O)c1 [10734/G05]
PDGF Kinase %Inhibition (PDGF-R): 2.9%
Biochem EGFR %Inhibition (EGFR): -0.3%

O=C1Nc2ccc(CCCl)cc2C1=Cc1ccc([N+](=O)[O-])cc1 [10734/G06]
PDGF Kinase %Inhibition (PDGF-R): -18.8%
Biochem EGFR %Inhibition (EGFR): 12.5%

O=C1Nc2ccc(CCCl)cc2C1=Cc1cc(Br)cc(Br)c1O [10734/G07]
PDGF Kinase %Inhibition (PDGF-R): -25.0%
Biochem EGFR %Inhibition (EGFR): 51.1%

O=C1Nc2ccc(CCCl)cc2C1=Cc1cccc(F)c1O [10734/G08]
PDGF Kinase %Inhibition (PDGF-R): 0.2%
Biochem EGFR %Inhibition (EGFR): 33.7%

O=C1Nc2ccc(CCCl)cc2C1=Cc1ccc(O)c(Br)c1 [10734/G09]
PDGF Kinase %Inhibition (PDGF-R): -7.7%
Biochem EGFR %Inhibition (EGFR): 21.4%

CC(C)(C)c1ccc(C=C2C(=O)Nc3ccc(CCCl)cc32)cc1 [10734/G10]
PDGF Kinase %Inhibition (PDGF-R): 9.9%
Biochem EGFR %Inhibition (EGFR): 3.8%

O=C1Nc2ccc(CCCl)cc2C1=Cc1ccc(Br)s1 [10734/G11]
PDGF Kinase %Inhibition (PDGF-R): -25.4%
Biochem EGFR %Inhibition (EGFR): 4.1%
